Where a name gives a salt, the structure may show the parent alone.
Columns and labels:
Assay in all cases: PI3K enzyme inhibitory activity in the cell free assay (ADP-Glo Kinase Assay)
Assay type in all cases: biochemical
[1] = target: T1, PI3Kδ (Homo sapiens, UniProt O00329); conditions: human recombinant PI3Kδ, ATP 80 μM; read-out: PI3K delta inhibition
T1 construct: purchased Millipore Ltd (Billerica, Mass.)
T1 sequence (O00329 1-1044): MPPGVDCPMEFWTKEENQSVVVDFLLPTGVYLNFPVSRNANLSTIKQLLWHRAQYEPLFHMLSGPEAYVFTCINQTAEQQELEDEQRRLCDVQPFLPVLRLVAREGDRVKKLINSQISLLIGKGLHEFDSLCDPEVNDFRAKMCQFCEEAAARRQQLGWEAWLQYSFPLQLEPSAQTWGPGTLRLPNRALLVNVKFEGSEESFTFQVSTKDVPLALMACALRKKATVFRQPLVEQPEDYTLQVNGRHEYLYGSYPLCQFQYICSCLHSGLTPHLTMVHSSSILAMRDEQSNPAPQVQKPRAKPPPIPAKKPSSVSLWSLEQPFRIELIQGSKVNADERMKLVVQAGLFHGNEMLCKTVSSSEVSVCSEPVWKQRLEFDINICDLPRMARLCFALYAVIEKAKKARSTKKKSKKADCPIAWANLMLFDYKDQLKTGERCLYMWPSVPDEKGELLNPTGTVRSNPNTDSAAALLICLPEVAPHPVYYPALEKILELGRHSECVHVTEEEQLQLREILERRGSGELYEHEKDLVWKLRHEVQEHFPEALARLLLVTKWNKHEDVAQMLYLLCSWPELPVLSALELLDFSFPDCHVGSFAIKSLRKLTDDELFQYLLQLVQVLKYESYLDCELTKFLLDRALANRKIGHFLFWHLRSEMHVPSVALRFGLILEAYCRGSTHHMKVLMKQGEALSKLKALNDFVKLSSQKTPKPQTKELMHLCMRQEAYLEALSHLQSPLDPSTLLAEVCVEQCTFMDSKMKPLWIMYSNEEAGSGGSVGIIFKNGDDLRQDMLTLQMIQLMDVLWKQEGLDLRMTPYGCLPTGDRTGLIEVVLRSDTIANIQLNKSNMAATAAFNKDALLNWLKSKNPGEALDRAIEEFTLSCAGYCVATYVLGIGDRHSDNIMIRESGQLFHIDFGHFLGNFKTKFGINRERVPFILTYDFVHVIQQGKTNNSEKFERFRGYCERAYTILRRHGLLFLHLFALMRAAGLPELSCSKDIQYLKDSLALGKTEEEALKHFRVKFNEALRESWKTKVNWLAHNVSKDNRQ

[2] = target: T2, PI3Kβ (Homo sapiens, UniProt P42338); conditions: human recombinant PI3Kβ, ATP 100 μM; read-out: PI3K beta inhibition
T2 construct: purchased Millipore Ltd (Billerica, Mass.)

[3] = target: T3, PI3Kγ (Homo sapiens, UniProt P48736); conditions: human recombinant PI3Kγ, ATP 30 μM; read-out: PI3K gamma inhibition
T3 construct: purchased Millipore Ltd (Billerica, Mass.)

[4] = target: T4, PI3Kα (Homo sapiens, UniProt P42336); conditions: human recombinant PI3Kα, ATP 50 μM; read-out: PI3K alpha inhibition
T4 construct: purchased Millipore Ltd (Billerica, Mass.)
T4 sequence (P42336 whole entry): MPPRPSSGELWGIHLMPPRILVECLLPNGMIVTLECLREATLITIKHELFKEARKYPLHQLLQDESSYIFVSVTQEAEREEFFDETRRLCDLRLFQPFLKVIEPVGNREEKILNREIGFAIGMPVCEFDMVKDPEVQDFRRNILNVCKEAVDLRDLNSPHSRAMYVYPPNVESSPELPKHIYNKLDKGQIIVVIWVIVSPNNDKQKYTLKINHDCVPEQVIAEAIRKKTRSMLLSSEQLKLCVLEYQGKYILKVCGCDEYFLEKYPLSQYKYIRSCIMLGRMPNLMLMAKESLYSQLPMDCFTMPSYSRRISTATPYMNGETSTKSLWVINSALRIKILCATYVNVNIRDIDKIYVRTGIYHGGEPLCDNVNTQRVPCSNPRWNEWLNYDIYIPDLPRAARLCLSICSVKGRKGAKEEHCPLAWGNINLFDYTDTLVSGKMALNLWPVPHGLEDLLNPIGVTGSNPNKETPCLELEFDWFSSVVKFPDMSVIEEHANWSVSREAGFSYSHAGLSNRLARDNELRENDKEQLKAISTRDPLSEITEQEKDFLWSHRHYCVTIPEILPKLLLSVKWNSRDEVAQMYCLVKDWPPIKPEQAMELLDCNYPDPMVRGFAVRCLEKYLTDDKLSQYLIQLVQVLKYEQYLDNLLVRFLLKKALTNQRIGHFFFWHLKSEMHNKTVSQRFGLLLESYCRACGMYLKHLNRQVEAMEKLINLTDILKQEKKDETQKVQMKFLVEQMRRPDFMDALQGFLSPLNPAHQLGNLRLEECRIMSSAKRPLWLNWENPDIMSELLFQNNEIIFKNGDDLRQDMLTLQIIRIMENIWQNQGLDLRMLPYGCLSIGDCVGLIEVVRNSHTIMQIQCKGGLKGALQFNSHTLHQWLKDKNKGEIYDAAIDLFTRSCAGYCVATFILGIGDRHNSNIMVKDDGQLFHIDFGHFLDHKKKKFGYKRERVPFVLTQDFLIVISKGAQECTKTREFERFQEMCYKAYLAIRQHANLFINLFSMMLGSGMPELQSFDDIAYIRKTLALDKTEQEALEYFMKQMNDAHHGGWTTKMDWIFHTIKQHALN

T2 sequence (P42338 whole entry): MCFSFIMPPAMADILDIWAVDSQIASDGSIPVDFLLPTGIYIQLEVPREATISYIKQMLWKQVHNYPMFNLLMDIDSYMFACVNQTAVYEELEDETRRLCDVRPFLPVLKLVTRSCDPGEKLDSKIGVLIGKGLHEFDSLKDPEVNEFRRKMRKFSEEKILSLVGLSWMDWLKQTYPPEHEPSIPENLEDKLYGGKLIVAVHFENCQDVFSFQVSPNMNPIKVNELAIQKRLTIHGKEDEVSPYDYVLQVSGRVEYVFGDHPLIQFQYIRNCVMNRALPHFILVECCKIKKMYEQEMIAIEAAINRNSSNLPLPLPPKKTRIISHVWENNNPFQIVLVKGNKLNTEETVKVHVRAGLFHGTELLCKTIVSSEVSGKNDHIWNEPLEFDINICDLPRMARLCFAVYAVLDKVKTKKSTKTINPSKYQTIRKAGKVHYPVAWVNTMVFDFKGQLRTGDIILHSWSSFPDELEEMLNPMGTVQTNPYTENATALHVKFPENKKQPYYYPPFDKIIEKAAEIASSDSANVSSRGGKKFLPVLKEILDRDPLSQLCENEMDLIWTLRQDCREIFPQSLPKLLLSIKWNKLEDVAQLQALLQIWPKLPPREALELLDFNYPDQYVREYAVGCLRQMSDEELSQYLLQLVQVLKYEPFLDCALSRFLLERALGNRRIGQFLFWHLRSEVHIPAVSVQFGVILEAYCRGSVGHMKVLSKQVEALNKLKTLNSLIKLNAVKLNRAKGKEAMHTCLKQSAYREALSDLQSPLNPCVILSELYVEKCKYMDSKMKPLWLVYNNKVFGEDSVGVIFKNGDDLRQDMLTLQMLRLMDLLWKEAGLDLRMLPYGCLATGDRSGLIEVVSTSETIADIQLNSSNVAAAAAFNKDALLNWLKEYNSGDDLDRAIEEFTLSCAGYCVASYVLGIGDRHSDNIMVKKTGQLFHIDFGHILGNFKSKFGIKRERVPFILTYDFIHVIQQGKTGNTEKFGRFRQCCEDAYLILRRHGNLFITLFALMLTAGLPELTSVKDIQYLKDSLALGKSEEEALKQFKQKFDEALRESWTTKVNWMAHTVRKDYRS
T3 sequence (P48736 whole entry): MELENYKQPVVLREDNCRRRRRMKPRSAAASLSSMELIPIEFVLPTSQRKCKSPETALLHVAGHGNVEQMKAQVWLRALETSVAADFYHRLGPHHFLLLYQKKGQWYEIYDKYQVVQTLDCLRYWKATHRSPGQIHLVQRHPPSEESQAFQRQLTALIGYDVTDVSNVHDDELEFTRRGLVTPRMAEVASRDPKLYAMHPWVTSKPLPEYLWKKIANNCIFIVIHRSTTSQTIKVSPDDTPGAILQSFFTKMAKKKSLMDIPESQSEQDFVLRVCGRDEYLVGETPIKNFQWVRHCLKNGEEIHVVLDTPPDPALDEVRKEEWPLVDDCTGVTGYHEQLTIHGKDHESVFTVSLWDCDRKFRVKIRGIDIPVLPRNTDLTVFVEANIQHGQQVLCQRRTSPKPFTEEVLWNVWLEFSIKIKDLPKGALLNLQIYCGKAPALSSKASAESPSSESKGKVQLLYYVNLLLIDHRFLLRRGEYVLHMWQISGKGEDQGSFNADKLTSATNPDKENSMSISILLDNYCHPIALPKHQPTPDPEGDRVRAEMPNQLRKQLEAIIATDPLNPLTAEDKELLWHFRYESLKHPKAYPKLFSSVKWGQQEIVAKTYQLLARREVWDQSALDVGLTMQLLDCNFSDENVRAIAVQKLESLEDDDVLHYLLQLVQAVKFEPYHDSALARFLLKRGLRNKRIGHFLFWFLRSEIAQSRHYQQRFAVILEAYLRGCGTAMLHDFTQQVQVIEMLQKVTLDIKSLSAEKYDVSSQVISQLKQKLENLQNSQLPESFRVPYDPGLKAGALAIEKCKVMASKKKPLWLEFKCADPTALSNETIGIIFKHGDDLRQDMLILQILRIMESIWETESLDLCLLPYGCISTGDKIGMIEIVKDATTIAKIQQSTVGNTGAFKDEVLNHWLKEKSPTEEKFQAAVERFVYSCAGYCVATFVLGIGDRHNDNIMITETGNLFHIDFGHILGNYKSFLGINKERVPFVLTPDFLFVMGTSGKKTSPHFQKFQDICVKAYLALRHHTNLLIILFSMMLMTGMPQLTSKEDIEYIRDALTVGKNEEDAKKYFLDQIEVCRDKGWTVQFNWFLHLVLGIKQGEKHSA

IC50 [1] | IC50 [2] | IC50 [3] | IC50 [4] | SMILES
< 10 nM | 10 to 1000 nM | 10 to 1000 nM | 10 to 1000 nM | CC(c1oc(=O)c2ccccc2c1-c1ccc(CN2CCOCC2)s1)n1nc(-c2cc(O)cc(F)c2)c2c(N)ncnc21 (single isomer, unassigned) [Example 49a, 3-(1-(4-amino-3-(3-fluoro-5-hydroxyphenyl)-1H-pyrazolo[3,4-d]pyrimidin-1-yl)ethyl)-4-(5-(morpholinomethyl)thiophen-2-yl)-1H-isochromen-1-one hydrochloride]
< 10 nM | 10 to 1000 nM | 10 to 1000 nM | 10 to 1000 nM | CC(c1oc(=O)c2ccccc2c1-c1ccc(CN2CCCCC2)s1)n1nc(-c2cc(O)cc(F)c2)c2c(N)ncnc21 (single isomer, unassigned) [Example 68b, 3-(1-(4-amino-3-(3-fluoro-5-hydroxyphenyl)-1H-pyrazolo[3,4-d]pyrimidin-1-yl)ethyl)-4-(5-(piperidin-1-ylmethyl)thiophen-2-yl)-1H-isochromen-1-one hydrochloride single enantiomers]
< 10 nM | 10 to 1000 nM | 10 to 1000 nM | 10 to 1000 nM | CC(c1oc(=O)c2ccccc2c1-c1ccc(CN2CCN(CCO)CC2)s1)n1nc(-c2cc(O)cc(F)c2)c2c(N)ncnc21 (single isomer, unassigned) [Example 76b, 3-(1-(4-amino-3-(3-fluoro-5-hydroxyphenyl)-1H-pyrazolo[3,4-d]pyrimidin-1-yl)ethyl)-4-(5-((4-(2-hydroxyethyl)piperazin-1-yl)methyl)thiophen-2-yl)-1H-isochromen-1-one hydrochloride]
< 10 nM | 10 to 1000 nM | 10 to 1000 nM | > 1000 nM | CC(c1oc(=O)c2ccccc2c1-c1cccc(CCCN(C)C)c1)n1nc(-c2cc(O)cc(F)c2)c2c(N)ncnc21 (single isomer, unassigned) [Example 137b, 3-(1-(4-amino-3-(3-fluoro-5-hydroxyphenyl)-1H-pyrazolo[3,4-d]pyrimidin-1-yl)ethyl)-4-(3-(3-(dimethylamino)propyl)phenyl)-1H-isochromen-1-one single enantiomers]
< 10 nM | > 1000 nM | 10 to 1000 nM | > 1000 nM | CC(c1oc(=O)c2ccccc2c1-c1ccc(CCCN(C)C)cc1)n1nc(-c2cc(O)cc(F)c2)c2c(N)ncnc21 (single isomer, unassigned) [Example 138b, 3-(1-(4-amino-3-(3-fluoro-5-hydroxyphenyl)-1H-pyrazolo[3,4-d]pyrimidin-1-yl)ethyl)-4-(4-(3-(dimethylamino)propyl)phenyl)-1H-isochromen-1-one single enantiomers]
< 10 nM | 10 to 1000 nM | 10 to 1000 nM | 10 to 1000 nM | CC(c1oc(=O)c2ccccc2c1-c1cncs1)n1nc(-c2cc(O)cc(F)c2)c2c(N)ncnc21 (single isomer, unassigned) [Example 167a, 3-(1-(4-amino-3-(3-fluoro-5-hydroxyphenyl)-1H-pyrazolo[3,4-d]pyrimidin-1-yl)ethyl)-4-(thiazol-5-yl)-1H-isochromen-1-one single enantiomer]
 | 10 to 1000 nM |  | > 1000 nM | CC(c1oc(=O)c2ccccc2c1C1=CCCN(Cc2ccccc2)C1)n1nc(-c2cc(O)cc(F)c2)c2c(N)ncnc21 (single isomer, unassigned) [Example 169b, 3-(1-(4-amino-3-(3-fluoro-5-hydroxyphenyl)-1H-pyrazolo[3,4-d]pyrimidin-1-yl)ethyl)-4-(1-benzyl-1,2,5,6-tetrahydropyridin-3-yl)-1H-isochromen-1-one hydrochloride single enantiomers]
 |  | 10 to 1000 nM | > 1000 nM | O=c1oc(CNc2ncnc3[nH]cnc23)c(-c2ccccc2)c2ccccc12 [Example 29, 3-((9H-Purin-6-ylamino)methyl)-4-phenyl-1H-isochromen-1-one]
< 10 nM |  | 10 to 1000 nM | > 1000 nM | Cc1cccc(-c2c(C(C)n3nc(-c4cn[nH]c4)c4c(N)ncnc43)oc(=O)c3ccccc23)c1 (stereo not shown) [Example 42, 3-(1-(4-Amino-3-(1H-pyrazol-4-yl)-1H-pyrazolo[3,4-d]pyrimidin-1-yl)ethyl)-4-m-tolyl-1H-isochromen-1-one]
10 to 1000 nM |  | 10 to 1000 nM | 10 to 1000 nM | CC(c1oc(=O)c2ccccc2c1-c1ccccc1)n1nc(-c2cncc(NS(=O)(=O)c3ccc(F)cc3)c2)c2c(N)ncnc21 (stereo not shown) [Example 87, N-(5-(4-amino-1-(1-(1-oxo-4-phenyl-1H-isochromen-3-yl)ethyl)-1H-pyrazolo[3,4-d]pyrimidin-3-yl)pyridin-3-yl)-4-fluorobenzenesulfonamide]
10 to 1000 nM |  | 10 to 1000 nM | > 1000 nM | CC(c1oc(=O)c2ccccc2c1-c1ccccc1)n1nc(-c2cc[nH]n2)c2c(N)ncnc21 (stereo not shown) [Example 111, 3-(1-(4-amino-3-(1H-pyrazol-3-yl)-1H-pyrazolo[3,4-d]pyrimidin-1-yl)ethyl)-4-phenyl-1H-isochromen-1-one]
10 to 1000 nM | > 1000 nM | > 1000 nM |  | CC(c1oc(=O)c2ccccc2c1-c1ccc(CN2CCNCC2)cc1)n1nc(-c2cc(O)cc(F)c2)c2c(N)ncnc21 (stereo not shown) [Example 125, 3-(1-(4-amino-3-(3-fluoro-5-hydroxyphenyl)-1H-pyrazolo[3,4-d]pyrimidin-1-yl)ethyl)-4-(4-(piperazin-1-ylmethyl)phenyl)-1H-isochromen-1-one dihydrochloride]
10 to 1000 nM | > 1000 nM | > 1000 nM |  | CC(c1oc(=O)c2ccccc2c1C1=CCN(Cc2ccccc2)CC1)n1nc(-c2cc(O)cc(F)c2)c2c(N)ncnc21 (stereo not shown) [Example 131, 3-(1-(4-amino-3-(3-fluoro-5-hydroxyphenyl)-1H-pyrazolo[3,4-d]pyrimidin-1-yl)ethyl)-4-(1-benzyl-1,2,3,6-tetrahydropyridin-4-yl)-1H-isochromen-1-one hydrochloride]
10 to 1000 nM | 10 to 1000 nM | > 1000 nM |  | CC(c1oc(=O)c2ccccc2c1-c1cccc(CN2CCCCC2)c1)n1nc(-c2cc(O)cc(F)c2)c2c(N)ncnc21 (stereo not shown) [Example 143, 3-(1-(4-amino-3-(3-fluoro-5-hydroxyphenyl)-1H-pyrazolo[3,4-d]pyrimidin-1-yl)ethyl)-4-(3-(piperidin-1-ylmethyl)phenyl)-1H-isochromen-1-one, Formate]
10 to 1000 nM | 10 to 1000 nM |  | 10 to 1000 nM | CC(c1oc(=O)c2ccccc2c1C#CCN(C)C)n1nc(-c2cc(O)cc(F)c2)c2c(N)ncnc21 (stereo not shown) [Example 158, 3-(1-(4-amino-3-(3-fluoro-5-hydroxyphenyl)-1H-pyrazolo[3,4-d]pyrimidin-1-yl)ethyl)-4-(3-(dimethylamino)prop-1-yn-1-yl)-1H-isochromen-1-one hydrochloride]
10 to 1000 nM | > 1000 nM | 10 to 1000 nM |  | Cc1c(O)cncc1-c1nn(C(C)c2oc(=O)c3ccccc3c2-c2ccccc2)c2ncnc(N)c12 (stereo not shown) [Example 159, 3-(1-(4-amino-3-(5-hydroxy-4-methylpyridin-3-yl)-1H-pyrazolo[3,4-d]pyrimidin-1-yl)ethyl)-4-phenyl-1H-isochromen-1-one]
< 10 nM | 10 to 1000 nM | 10 to 1000 nM |  | Cc1ncc(O)cc1-c1nn(C(C)c2oc(=O)c3ccccc3c2-c2ccccc2)c2ncnc(N)c12 (stereo not shown) [Example 160, 3-(1-(4-amino-3-(5-hydroxy-2-methylpyridin-3-yl)-1H-pyrazolo[3,4-d]pyrimidin-1-yl)ethyl)-4-phenyl-1H-isochromen-1-one]
10 to 1000 nM |  | 10 to 1000 nM | > 1000 nM | Cc1ccc2c(-c3ccccc3)c(C(C)n3nc(-c4cc(O)cc(F)c4)c4c(N)ncnc43)oc(=O)c2c1 (stereo not shown) [Example 162, 3-(1-(4-amino-3-(3-fluoro-5-hydroxyphenyl)-1H-pyrazolo[3,4-d]pyrimidin-1-yl)ethyl)-7-methyl-4-phenyl-1H-isochromen-1-one]
10 to 1000 nM | > 1000 nM | 10 to 1000 nM |  | Nc1ncnc2c1c(I)nn2Cc1oc(=O)c2ccccc2c1-c1ccccc1 [Int D1, 3-((4-Amino-3-iodo-1H-pyrazolo[3,4-d]pyrimidin-1-yl)methyl)-4-phenyl-1H-isochromen-1-one]

From patent publication US9321776B2, “Isochromene derivatives as phoshoinositide 3-kinases inhibitors” (CHIESI FARMACEUTICI S.p.A., priority 2013, dated 2016)
